Like-named read-outs stand apart in the source and are kept apart here.
Tests used:
[1] = system: BCL6 reporter construct in SuDHL4-3×BCL6-TK-Luc cells; assay: Cell-based luciferase assay (BCL6 reporter); conditions: 48 h, read-out: Luc IC50
Description: Cell-Based Luciferase Assay:
A BCL6 reporter construct containing three copies of the consensus BCL6 binding site, the TK promoter, and the firefly luciferase gene was stably expressed in SuDHL4 cells after lentivirus infection and selection with Blasticidin. SuDHL4-3×BCL6-TK-Luc cells were seeded into a Viewplate 384-well assay dish at 15,000 cells/well in […] (Alpha-MEM high glucose containing 10% FBS, 25 mM HEPES, […] GlutaMAX, 100 µg/mL Normocin, and […] Gentamycin, Invitrogen). A HP D300 digital dispenser was used to dose cells with DMSO or test compounds across a 10-point range of concentrations (high dose of 10 μM), and cultures were grown in a humidified 5% CO2 incubator at 37° C. After two days, plates were removed from the incubator and equilibrated to room temperature. An equal volume of neolite reporter gene assay reagent was added to each well, and samples were processed according to the manufacturer's instructions (Perkin Elmer). The luminescent signal was measured using an Envision plate reader equipped with a US-Luminescence detector.

[2] = molecular target: BCL6 BTB domain (biotin-thrombin-BCL6 amino acids 1-129) (Homo sapiens (Human), UniProt P41182); assay: Surface Plasmon Resonance (SPR) assay; type: binding; conditions: Biacore T200, single cycle kinetic analysis
Description: Surface Plasmon Resonance (SPR) Assay
SPR studies were performed using a Biacore™ T200 instrument (GE Health Sciences Inc.). […] The Biacore flow rate was set at 100 μl/min. […] Curve fitting and KD calculations were performed with the Biacore T200 Evaluation software (GE Health Sciences Inc).

Karpas422 cells = assay: Tumor cell growth inhibition assay; type: cell-based; conditions: Homo sapiens, KARPAS-422, 144 h, read-out: GI Karpas EC50
Description: Tumor Cell Growth Inhibition Assay:
Karpas422 cells were seeded into a 96-well plate at 2,000 cells/well in 150 μl medium (Alpha-MEM containing 10% FBS, […] Normocin, and […] Gentamycin, Invitrogen). A HP D300 digital dispenser was used to dose cells with DMSO or test compounds across a 10-point range of concentrations (high dose of 5 μM), and cultures were grown in a humidified 5% CO2 incubator at 37° C. After six days, plates were removed from incubator and equilibrated to room temperature. An equal volume of ATPlite assay reagent was added to each well, and samples were processed according to the manufacturer's instructions (Perkin Elmer). The luminescent signal was measured using an Envision plate reader equipped with a US-Luminescence detector.

[3] = SuDHL4-3×BCL6-TK-Luc cells, two days
[4] = Karpas422 cells, six days, ATPlite

Structure (SMILES)	IC50 [1, 3]	Kd [2]	EC50 (Karpas422 cells; [4])	IC50 [1]	EC50 (Karpas422 cells)
C[C@H]1COCCN1c1cc(NC(=O)Cn2cc(-c3cc(Cl)c(O)c(C(N)=O)c3)c3c(=O)n4c(nc32)CCC4)c(Cl)cn1 [I-2, (S)-3-chloro-5-(1-(2-((5-chloro-2-(3-methyl-morpholino)pyridin-4-yl)amino)-2-oxoethyl)-4-oxo-4,6,7,8-tetra-hydro-1H-dipyrrolo [1,2-a:2′,3′-d]pyrimidin-3-yl)-2-hydroxy-benzamide]	95 nM	4.48 nM	304 nM		
C[C@H]1COCCN1c1cc(NC(=O)Cn2cc(-c3cc(C(N)=O)c(O)c(F)c3F)c3c(=O)n4c(nc32)CCC4)c(Cl)cn1 [I-3, (S)-5-(1-(2-((5-chloro-2-(3-methylmorpho-lino)pyridin-4-yl)amino)-2-oxoethyl)-4-oxo-4,6,7,8-tetrahydro-1H-dipyrrolo[1,2-a:2′,3′-d]pyrimidin-3-yl)-3,4-difluoro-2-hydroxy-benzamide]	708 nM	25.2 nM	502 nM		
C[C@H]1CN(C)CCN1c1cc(NC(=O)Cn2cc(-c3cc(C(N)=O)c(O)c(F)c3F)c3c(=O)n4c(nc32)CCC4)c(Cl)cn1 [I-4, (S)-5-(1-(2-((5-chloro-2-(2,4-dimethylpiperazin-1-yl)pyridin-4-yl)amino)-2-oxoethyl)-4-oxo-4,6,7,8-tetrahydro-1H-dipyrrolo [1,2-a:2′,3′-d]pyrimidin-3-yl)-3,4-difluoro-2-hydroxybenzamide]	318 nM	23.2 nM	312 nM		
C[C@H]1COCCN1c1cc(NC(=O)Cn2cc(-c3cc(C(N)=O)c(O)c(F)c3F)c3c(=O)n4c(nc32)CCC4)c(Cl)c(F)n1 [I-5, (S)-5-(1-(2-((3-chloro-2-fluoro-6-(3-methyl-morpholino)pyridin-4-yl)amino)-2-oxoethyl)-4-oxo-4,6,7,8-tetrahydro-1H-dipyrrolo[1,2-a:2′,3′-d]pyrimidin-3-yl)-3,4-difluoro-2-hydroxy-benzamide]		11.7 nM		167 nM	124 nM
C[C@H]1CN(CC2CC2)CCN1c1cc(NC(=O)Cn2cc(-c3cc(C(N)=O)c(O)c(F)c3F)c3c(=O)n4c(nc32)CCC4)c(Cl)cn1 [I-6, (S)-5-(1-(2-((5-chloro-2-(4-(cyclopropylmethyl)-2-methylpiperazin-1-yl)pyridin-4-yl)amino)-2-oxoethyl)-4-oxo-4,6,7,8-tetrahydro-1H-dipyrrolo[1,2-a:2′,3′-d]pyrimidin-3-yl)-3,4-difluoro-2-hydroxy-benzamide]	306 nM	25.9 nM	997 nM		
C[C@H]1CN(C2COC2)CCN1c1cc(NC(=O)Cn2cc(-c3cc(C(N)=O)c(O)c(F)c3F)c3c(=O)n4c(nc32)CCC4)c(Cl)cn1 [I-7, (S)-5-(1-(2-((5-chloro-2-(2-methyl-4-(oxetan-3-yl)piperazin-1-yl)pyridin-4-yl)amino)-2-oxoethyl)-4-oxo-4,6,7,8-tetrahydro-1H-dipyrrolo[1,2-a:2′,3′-d]pyrimidin-3-yl)-3,4-difluoro-2-hydroxy-benzamide]	213 nM	17.6 nM	299 nM		
COc1c(O)c(C(N)=O)cc(-c2cn(CC(=O)Nc3cc(N4CCN(C)C[C@@H]4C)nc(F)c3Cl)c3nc4n(c(=O)c23)CCC4)c1F [I-15, (S)-5-(1-(2-((3-chloro-6-(2,4-dimethylpiperazin-1-yl)-2-fluoropyridin-4-yl)amino)-2-oxoethyl)-4-oxo-4,6,7,8-tetrahydro-1H-dipyrrolo[1,2-a:2′,3′-d]pyrimidin-3-yl)-4-fluoro-2-hydroxy-3-methoxybenzamide]		34.1 nM		374 nM	
COc1c(O)c(C(N)=O)cc(-c2cn(CC(=O)Nc3cc(N4CCOC[C@@H]4C)nc(F)c3Cl)c3nc4n(c(=O)c23)CCC4)c1F [I-16, (S)-5-(1-(2-((3-chloro-2-fluoro-6-(3-methyl-morpholino)pyridin-4-yl)amino)-2oxoethyl)-4-oxo-4,6,7,8-tetra-hydro-1H-dipyrrolo [1,2-a:2′,3′-d]pyri-midin-3-yl)-4-fluoro-2-hydroxy-3-methoxy-benzamide]				510 nM	

— patent US11242351B2, “Tricyclic inhibitors of the BCL6 BTB domain protein-protein interaction and uses thereof” (priority 2017, dated 2022)
